From patent US20250073226A1, “USE OF OPIOID FOR TREATMENT OF AUTISM SPECTRUM DISORDERS” (priority 2021, published 2025)
Several values for one entry are separate records, joined by “and”; a condition that tells them apart may be missing. Identical values can stand only once.

Assays:
[1] = Pharmacokinetic: drug concentrations in plasma by LC-MS after subcutaneous administration; conditions: ICR mice
[2] = tested on: model similar to this experiment; conditions: 3 hours after administration; Horm Behav. 2017 November; 96:130-136; cited from earlier work
mice = conditions: Non-patent Document 28; cited from earlier work
[3] = morphine hydrochloride 0.03 mg/kg s.c., Average value
[4] = morphine hydrochloride 0.03 mg/kg s.c., individual animals
[5] = morphine hydrochloride 0.1 mg/kg s.c., Average value
[6] = morphine hydrochloride 0.1 mg/kg s.c., individual animals
[7] = morphine hydrochloride 3 mg/kg s.c., Average value
[8] = morphine hydrochloride 3 mg/kg s.c., individual animals

## CN1CC[C@]23c4c5ccc(O)c4O[C@H]2[C@@H](O[C@@H]2O[C@H](C(=O)O)[C@@H](O)[C@H](O)[C@H]2O)C=C[C@H]3[C@H]1C5 [M6G]
[1]; [3]
  Plasma concentration M6G After 15 minutes: 13.2 ng/mL
  Plasma concentration M6G After 60 minutes: 5.09 ng/mL
  Plasma concentration M6G After 90 minutes: 0.488 ng/mL
[1]; [4]
  Plasma concentration M6G After 15 minutes: 10.4 ng/mL and 15.7 ng/mL and 13.6 ng/mL
  Plasma concentration M6G After 60 minutes: 6.28 ng/mL and 5.05 ng/mL and 3.95 ng/mL
  Plasma concentration M6G After 90 minutes: 0 ng/mL and 0.806 ng/mL and 0.657 ng/mL
[1]; [5]
  Plasma concentration M6G After 15 minutes: 44.6 ng/mL
  Plasma concentration M6G After 90 minutes: 3.41 ng/mL
[1]; morphine hydrochloride 0.1 mg/kg s.c., Average value (N = 3 excluded as outlier)
  Plasma concentration M6G After 60 minutes: 7.65 ng/mL
[1]; [6]
  Plasma concentration M6G After 15 minutes: 47.7 ng/mL and 35.3 ng/mL and 50.7 ng/mL
  Plasma concentration M6G After 60 minutes: 0 ng/mL and 15.3 ng/mL
  Plasma concentration M6G After 90 minutes: 2.98 ng/mL and 4.4 ng/mL and 2.85 ng/mL
[1]; [7]
  Plasma concentration M6G After 15 minutes: 1196 ng/mL
  Plasma concentration M6G After 60 minutes: 646 ng/mL
  Plasma concentration M6G After 90 minutes: 298 ng/mL
[1]; [8]
  Plasma concentration M6G After 15 minutes: 1250 ng/mL and 1340 ng/mL and 998 ng/mL
  Plasma concentration M6G After 60 minutes: 829 ng/mL and 580 ng/mL and 528 ng/mL
  Plasma concentration M6G After 90 minutes: 320 ng/mL and 240 ng/mL and 335 ng/mL

## CC[C@H](C)[C@@H]1NC(=O)[C@H](Cc2ccc(O)cc2)NC(=O)[C@@H](N)CSSC[C@@H](C(=O)N2CCC[C@H]2C(=O)N[C@@H](CC(C)C)C(=O)NCC(N)=O)NC(=O)[C@H](CC(N)=O)NC(=O)[C@H](CCC(N)=O)NC1=O [oxytocin]
[2]
  improvement effect of social impairment, persistence: the drug efficacy disappears

## CN1CC[C@]23c4c5ccc(O)c4O[C@H]2[C@@H](O)C=C[C@H]3[C@H]1C5 [morphine]
mice
  dose at which the analgesic effect was maximum: 8 mg/kg
